Measurements published in US11351129B2, “Systems and methods for treating vitiligo” (Transdermal Biotechnology, Inc., priority 2016, dated 2022).

Tested on: vitiligo depigmented area of skin
Test: Two month study of topically applied sodium pyruvate in subjects with vitiligo (photographs, DSMII Colorimeter erythema and melanin, clinical evaluations)
Assay type: in vivo, human
Details: for average erythema colorimetric measurement: DSMII Colorimeter, 0.2% phase
Text: Subjects were 18 years of age and older. A medical history form and this consent statement were provided to them to read, review, and complete. They had no other systemic or dermatological disease present that would interfere with the integrity of this study. Subjects were in good health as determined by the medical history. After all their questions were answered and they decided to participate in the study they were asked to sign the informed consent statement. 5 subjects were studied as follows:
Subjects were dispensed two (2) tubes of test products. One was labeled HNC 180-100-A (0.05%) and the other labeled as HNC 180-100-B (0.1%). Subjects were instructed to use these products sparingly and make applications twice daily, morning, and evening. Applications were made only to the areas designated for treatment.
The sodium pyruvate dosage was increased to 0.2% after the initial eight week study was completed. Subjects were dispensed HNC-180-12 for this phase.
This was a two (2) month study that involved five (5) subjects. Test sessions lasted approximately ½ hour per visit. There were […] scheduled visits. The first was on Day 1 (Baseline), and then at 1, 2, 4, 6 and 8 weeks.
At the end of the 8 weeks all subjects were invited to continue for further study. Four of the subjects elected to continue.
Prior to any study procedures being performed subjects were given an informed consent statement to read, review, and sign. A body map assessment of the vitiligo depigmented area was made and the target areas of treatment were photographed for the baseline record. Colorimetric measurements of the skin were done employing a DSMII Colorimeter. This instrument produced a read-out of erythema and melanin based on the light absorption characteristics of human skin. Subjects reported to the clinic for additional photographs, colorimeter measurements, and clinical evaluations at each scheduled visit.

## CC(=O)C(=O)[O-].[Na+] [sodium pyruvate]
5 subjects with vitiligo, topical, twice daily, 0.05% and 0.1% for 8 weeks, then 0.2%
  increase in pigment in vitiliginous areas, subjects showing it: 4 out of the 5
Concentration of sodium pyruvate increased to 0.2% after 8 weeks, topical
  irritation: increased irritation
Topically applied
  appearance of vitiligo: effective in reducing the appearance of vitiligo
Week 12
  average erythema colorimetric measurement: 15.80 arbitrary units
Week 16
  average erythema colorimetric measurement: 15.71 arbitrary units
